Experimental data published in ChEMBL document CHEMBL3044741, “Synthesis of novel biologically active methylene derivatives of sydnones” (Med Chem Res, 2013).
Values after ≈ are worked out from the molar mass of the structure shown.

Columns and labels:
TK-10 = test: Cytotoxicity against human TK10 assessed as cell growth at high concentration; format: functional
ACHN = test: Cytotoxicity against human ACHN assessed as cell growth at high concentration; format: functional
KM12 = test: Cytotoxicity against human KM12 assessed as cell growth at high concentration; format: functional
Aspergillus niger [1] = test: Antifungal activity against Aspergillus niger MTCC 282; format: functional
NCI-H460 = test: Cytotoxicity against human NCI-H460 assessed as cell growth at high concentration; format: functional
UO-31 = test: Cytotoxicity against human UO31 assessed as cell growth at high concentration; format: functional
EKVX = test: Cytotoxicity against human EKVX assessed as cell growth at high concentration; format: functional
Streptococcus pyogenes [2] = test: Antibacterial activity against Streptococcus pyogenes MTCC 442 after 24 hrs by broth dilution method; format: functional; settings: MTCC 442, 24 h
SF-539 = test: Cytotoxicity against human SF539 assessed as cell growth at high concentration; format: functional
RPMI-8226 = test: Cytotoxicity against human RPMI8226 assessed as cell growth at high concentration; format: functional
M14 = test: Cytotoxicity against human M14 assessed as cell growth at high concentration; format: functional
[3] = test system: Human immunodeficiency virus 1; test: Antiviral activity against HIV1 3B infected in MT4 cells assessed as inhibition of virus-induced cytopathogenicity by MTT assay; format: functional, organism-based; settings: Human immunodeficiency virus 1, 3B
IGROV-1 = test: Cytotoxicity against human IGROV1 assessed as cell growth at high concentration; format: functional
A498 = test: Cytotoxicity against human A498 assessed as cell growth at high concentration; format: functional
SK-OV-3 = test: Cytotoxicity against human SKOV3 assessed as cell growth at high concentration; format: functional
A549 = test: Cytotoxicity against human A549 assessed as cell growth at high concentration; format: functional
SNB-75 = test: Cytotoxicity against human SNB75 assessed as cell growth at high concentration; format: functional
MDA-MB-435 = test: Cytotoxicity against human MDA-MB-435 assessed as cell growth at high concentration; format: functional
OVCAR-3 = test: Cytotoxicity against human OVCAR3 assessed as cell growth at high concentration; format: functional
HOP-92 = test: Cytotoxicity against human HOP92 assessed as cell growth at high concentration; format: functional
CAKI-1 = test: Cytotoxicity against human Caki1 assessed as cell growth at high concentration; format: functional
SW-620 = test: Cytotoxicity against human SW620 assessed as cell growth at high concentration; format: functional
SF-295 = test: Cytotoxicity against human SF295 assessed as cell growth at high concentration; format: functional
SK-MEL-5 = test: Cytotoxicity against human SK-MEL-5 assessed as cell growth at high concentration; format: functional
CCRF-CEM = test: Cytotoxicity against human CCRF-CEM assessed as cell growth at high concentration; format: functional
[4] = Cytotoxicity against human NCI-ADR-RES assessed as cell growth at high concentration; format: functional
Aspergillus clavatus [5] = test: Antifungal activity against Aspergillus clavatus MTCC 1323 at 250 ug/ml after 74 hrs by Kirby-Bauer method; format: functional; settings: MTCC 1323, 74 h, read-out: IZ
SNB-19 = test: Cytotoxicity against human SNB19 assessed as cell growth at high concentration; format: functional
Aspergillus niger [6] = test: Antifungal activity against Aspergillus niger MTCC 282 at 250 ug/ml after 74 hrs by Kirby-Bauer method; format: functional; settings: MTCC 282, 74 h, read-out: IZ
Candida albicans = test: Antifungal activity against Candida albicans MTCC 227 at 250 ug/ml after 74 hrs by Kirby-Bauer method; format: functional; settings: MTCC 227, 74 h, read-out: IZ
Human alphaherpesvirus 3 = test: Antiviral activity against thymidine kinase-deficient Varicella-zoster virus infected in HEL cells assessed as reduction in plaque formation; format: functional, organism-based; settings: Human alphaherpesvirus 3, HEL
MCF7 = test: Cytotoxicity against human MCF7 assessed as cell growth at high concentration; format: functional
PC-3 = test: Cytotoxicity against human PC3 assessed as cell growth at high concentration; format: functional
MOLT-4 = test: Cytotoxicity against human MOLT4 assessed as cell growth at high concentration; format: functional
Escherichia coli = test: Antibacterial activity against Escherichia coli MTCC 443 after 24 hrs by broth dilution method; format: functional; settings: MTCC 443, 24 h
U-251 = test: Cytotoxicity against human U251 assessed as cell growth at high concentration; format: functional
Hs-578T = test: Cytotoxicity against human Hs 578T assessed as cell growth at high concentration; format: functional
Malme-3M = test: Cytotoxicity against human MALME-3M assessed as cell growth at high concentration; format: functional
NCI-H322M = test: Cytotoxicity against human NCI-H322M assessed as cell growth at high concentration; format: functional
Pseudomonas aeruginosa = test: Antibacterial activity against Pseudomonas aeruginosa MTCC 424 at 250 ug/ml after 24 hrs by Kirby-Bauer method; format: functional; settings: MTCC 424, 24 h, read-out: IZ
SK-MEL-28 = test: Cytotoxicity against human SK-MEL-28 assessed as cell growth at high concentration; format: functional
K562 = test: Cytotoxicity against human K562 assessed as cell growth at high concentration; format: functional
HOP-62 = test: Cytotoxicity against human HOP62 assessed as cell growth at high concentration; format: functional
Aspergillus clavatus [7] = test: Antifungal activity against Aspergillus clavatus MTCC 1323; format: functional
SK-MEL-2 = test: Cytotoxicity against human SK-MEL-2 assessed as cell growth at high concentration; format: functional
Staphylococcus aureus [8] = test: Antibacterial activity against Staphylococcus aureus MTCC 96 at 250 ug/ml after 24 hrs by Kirby-Bauer method; format: functional; settings: MTCC 96, 24 h, read-out: IZ
Staphylococcus aureus [9] = test: Antibacterial activity against Staphylococcus aureus MTCC 96 after 24 hrs by broth dilution method; format: functional; settings: MTCC 96, 24 h
Cytomegalovirus = test: Antiviral activity against Cytomegalovirus AD-169 infected in HEL cells assessed as reduction in plaque formation; format: functional, organism-based; settings: Human betaherpesvirus 5, AD-169, HEL
HCT-15 = test: Cytotoxicity against human HCT15 assessed as cell growth at high concentration; format: functional
UACC-62 = test: Cytotoxicity against human UACC62 assessed as cell growth at high concentration; format: functional
Streptococcus pyogenes [10] = test: Antibacterial activity against Streptococcus pyogenes MTCC 442 at 250 ug/ml after 24 hrs by Kirby-Bauer method; format: functional; settings: MTCC 442, 24 h, read-out: IZ
BT-549 = test: Cytotoxicity against human BT549 assessed as cell growth at high concentration; format: functional
UACC-257 = test: Cytotoxicity against human UACC257 assessed as cell growth at high concentration; format: functional
SF-268 = test: Cytotoxicity against human SF268 assessed as cell growth at high concentration; format: functional
[11] = test system: Human immunodeficiency virus 2; test: Antiviral activity against HIV2 ROD infected in MT4 cells assessed as inhibition of virus-induced cytopathogenicity by MTT assay; format: functional, organism-based; settings: Human immunodeficiency virus 2, ISOLATE ROD
[12] = Cytotoxicity against human HEL cells; format: cell-based

Cc1ccc(-[n+]2noc([O-])c2CN2CCNCC2)cc1
Activity (TK-10): 102.68% | Activity (ACHN): 92.05% | Activity (KM12): 91.06% | MIC (Aspergillus niger [1]): 200 µg/mL (≈ 729 µM) | Activity (NCI-H460): 95.72% | Activity (UO-31): 70.1% | Activity (EKVX): 104.33% | MIC (Streptococcus pyogenes [2]): 500 µg/mL (≈ 1820 µM) | Activity (SF-539): 101.2% | Activity (RPMI-8226): 100.12% | Activity (M14): 105.86% | IC50 [3]: > 32.6 µg/mL | Activity (IGROV-1): 101.72% | Activity (A498): 91.02% | Activity (SK-OV-3): 97.27% | Activity (A549): 99.61% | Activity (SNB-75): 145.71% | Activity (MDA-MB-435): 103.5% | Activity (OVCAR-3): 101.12% | Activity (HOP-92): 76.22% | Activity (CAKI-1): 91.35% | Activity (SW-620): 96.29% | Activity (SF-295): 98.69% | Activity (SK-MEL-5): 100.25% | Activity (CCRF-CEM): 102.79% | Activity [4]: 99.62% | zone of inhibition at 250 µg/mL (Aspergillus clavatus [5]): 24 mm | Activity (SNB-19): 103.47% | zone of inhibition at 250 µg/mL (Aspergillus niger [6]): 25 mm | zone of inhibition at 250 µg/mL (Candida albicans): 21 mm | EC50 (Human alphaherpesvirus 3): > 20 µg/mL | Activity (MCF7): 90.74% | Activity (PC-3): 88.56% | Activity (MOLT-4): 117.17% | MIC (Escherichia coli): 100 µg/mL (≈ 365 µM) | Activity (U-251): 91.33% | Activity (Hs-578T): 101.05% | Activity (Malme-3M): 109.79% | Activity (NCI-H322M): 103.75% | zone of inhibition at 250 µg/mL (Pseudomonas aeruginosa): 23 mm | Activity (SK-MEL-28): 105.58% | Activity (K562): 120.22% | Activity (HOP-62): 90.65% | MIC (Aspergillus clavatus [7]): 200 µg/mL (≈ 729 µM) | Activity (SK-MEL-2): 114.56% | zone of inhibition at 250 µg/mL (Staphylococcus aureus [8]): 17 mm | MIC (Staphylococcus aureus [9]): 200 µg/mL (≈ 729 µM) | EC50 (Cytomegalovirus): > 20 µg/mL | Activity (HCT-15): 102.72% | Activity (UACC-62): 93.66% | zone of inhibition at 250 µg/mL (Streptococcus pyogenes [10]): 17 mm | Activity (BT-549): 110.58% | Activity (UACC-257): 96.41% | Activity (SF-268): 95.92% | IC50 [11]: > 32.6 µg/mL | CC50 [12]: 46 µg/mL (≈ 168 µM)

Cc1ccc(-[n+]2noc([O-])c2CN2CCN(c3cccc(Cl)c3)CC2)cc1
Activity (TK-10): 119.81% | Activity (ACHN): 87.78% | Activity (KM12): 99.21% | MIC (Aspergillus niger [1]): 500 µg/mL (≈ 1300 µM) | Activity (NCI-H460): 89.39% | Activity (UO-31): 61.64% | Activity (EKVX): 88.38% | MIC (Streptococcus pyogenes [2]): 125 µg/mL (≈ 325 µM) | Activity (SF-539): 92.15% | Activity (RPMI-8226): 72.54% | Activity (M14): 107.94% | IC50 [3]: > 27.4 µg/mL | Activity (IGROV-1): 98.49% | Activity (A498): 51.7% | Activity (SK-OV-3): 99.53% | Activity (A549): 96.53% | Activity (SNB-75): 99.33% | Activity (MDA-MB-435): 100.2% | Activity (OVCAR-3): 88.44% | Activity (HOP-92): 72.29% | Activity (CAKI-1): 86.38% | Activity (SW-620): 92.74% | Activity (SF-295): 78.19% | Activity (SK-MEL-5): 95.3% | Activity (CCRF-CEM): 72.82% | Activity [4]: 97.44% | zone of inhibition at 250 µg/mL (Aspergillus clavatus [5]): 24 mm | Activity (SNB-19): 99.85% | zone of inhibition at 250 µg/mL (Aspergillus niger [6]): 23 mm | zone of inhibition at 250 µg/mL (Candida albicans): 21 mm | EC50 (Human alphaherpesvirus 3): > 20 µg/mL | Activity (MCF7): 92.1% | Activity (PC-3): 70.26% | Activity (MOLT-4): 88.5% | MIC (Escherichia coli): 100 µg/mL (≈ 260 µM) | Activity (U-251): 82.08% | Activity (Hs-578T): 92.29% | Activity (Malme-3M): 95.22% | Activity (NCI-H322M): 106.64% | zone of inhibition at 250 µg/mL (Pseudomonas aeruginosa): 21 mm | Activity (SK-MEL-28): 98.44% | Activity (K562): 53.83% | Activity (HOP-62): 86.8% | MIC (Aspergillus clavatus [7]): 200 µg/mL (≈ 520 µM) | Activity (SK-MEL-2): 108.26% | zone of inhibition at 250 µg/mL (Staphylococcus aureus [8]): 22 mm | MIC (Staphylococcus aureus [9]): 62.5 µg/mL (≈ 162 µM) | EC50 (Cytomegalovirus): 15.3 µg/mL (≈ 39.8 µM) | Activity (HCT-15): 77.65% | Activity (UACC-62): 82.63% | zone of inhibition at 250 µg/mL (Streptococcus pyogenes [10]): 20 mm | Activity (BT-549): 98.47% | Activity (UACC-257): 93.49% | Activity (SF-268): 88.36% | IC50 [11]: > 27.4 µg/mL | CC50 [12]: 38.2 µg/mL (≈ 99.3 µM)
